Test results from ChEMBL document CHEMBL3991601, “The target landscape of clinical kinase drugs” (Science, 2017).
Blank lines part the entries; values can stand above or below the compound they belong to. Calls of active or inactive are those of the source.

Experiments:
[1] = biological target: Serine/threonine-protein kinase 38-like (Homo sapiens, UniProt Q9Y2H1)
[2] = biological target: Eukaryotic peptide chain release factor GTP-binding subunit ERF3B (Homo sapiens, UniProt Q8IYD1)
Myosin-10 = Myosin-10 (Homo sapiens, UniProt P35580)
Misshapen-like kinase 1 = Misshapen-like kinase 1 (Homo sapiens, UniProt Q8N4C8)
[3] = biological target: MAP kinase-activated protein kinase 3 (Homo sapiens, UniProt Q16644)
[4] = biological target: Cyclin-dependent kinase 10 (Homo sapiens, UniProt Q15131)
[5] = biological target: Serine/threonine-protein kinase Nek7 (Homo sapiens, UniProt Q8TDX7)
[6] = biological target: T1, ATP-dependent RNA helicase DHX30 (Homo sapiens, UniProt Q7L2E3)
T1 sequence (Q7L2E3 whole entry): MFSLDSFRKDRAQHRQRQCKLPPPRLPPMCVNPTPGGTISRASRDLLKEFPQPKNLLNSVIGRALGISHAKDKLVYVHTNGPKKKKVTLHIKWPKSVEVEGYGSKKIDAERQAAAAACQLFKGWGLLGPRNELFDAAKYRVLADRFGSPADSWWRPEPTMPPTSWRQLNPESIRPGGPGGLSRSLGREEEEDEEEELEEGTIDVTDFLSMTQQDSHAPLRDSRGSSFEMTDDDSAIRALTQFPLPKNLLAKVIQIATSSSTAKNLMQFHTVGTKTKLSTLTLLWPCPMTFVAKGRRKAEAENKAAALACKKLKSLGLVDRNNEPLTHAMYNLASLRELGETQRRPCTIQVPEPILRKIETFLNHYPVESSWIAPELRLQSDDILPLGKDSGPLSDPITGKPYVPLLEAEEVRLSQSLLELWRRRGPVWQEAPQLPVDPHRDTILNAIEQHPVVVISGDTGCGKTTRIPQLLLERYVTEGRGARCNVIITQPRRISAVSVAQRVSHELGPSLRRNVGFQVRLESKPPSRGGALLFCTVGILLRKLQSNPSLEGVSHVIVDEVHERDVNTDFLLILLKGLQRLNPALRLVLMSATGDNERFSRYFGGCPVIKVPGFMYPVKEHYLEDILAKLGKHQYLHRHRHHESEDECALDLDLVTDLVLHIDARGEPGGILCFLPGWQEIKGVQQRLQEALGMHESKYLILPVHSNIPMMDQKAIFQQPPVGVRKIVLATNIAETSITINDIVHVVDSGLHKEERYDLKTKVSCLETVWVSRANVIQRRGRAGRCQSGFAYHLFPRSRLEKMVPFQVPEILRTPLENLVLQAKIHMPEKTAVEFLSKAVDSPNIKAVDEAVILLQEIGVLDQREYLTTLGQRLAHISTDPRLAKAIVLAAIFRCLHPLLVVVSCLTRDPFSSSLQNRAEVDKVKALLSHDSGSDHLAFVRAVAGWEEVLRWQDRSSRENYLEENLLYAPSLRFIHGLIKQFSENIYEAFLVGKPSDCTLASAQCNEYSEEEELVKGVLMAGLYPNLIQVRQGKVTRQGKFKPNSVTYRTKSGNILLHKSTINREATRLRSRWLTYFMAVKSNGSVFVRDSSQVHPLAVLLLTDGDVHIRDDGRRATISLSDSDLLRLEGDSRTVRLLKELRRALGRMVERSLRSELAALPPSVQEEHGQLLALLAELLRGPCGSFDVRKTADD

[7] = biological target: T2, Dual specificity mitogen-activated protein kinase kinase 4 (Homo sapiens, UniProt P45985)
T2 sequence (P45985 whole entry): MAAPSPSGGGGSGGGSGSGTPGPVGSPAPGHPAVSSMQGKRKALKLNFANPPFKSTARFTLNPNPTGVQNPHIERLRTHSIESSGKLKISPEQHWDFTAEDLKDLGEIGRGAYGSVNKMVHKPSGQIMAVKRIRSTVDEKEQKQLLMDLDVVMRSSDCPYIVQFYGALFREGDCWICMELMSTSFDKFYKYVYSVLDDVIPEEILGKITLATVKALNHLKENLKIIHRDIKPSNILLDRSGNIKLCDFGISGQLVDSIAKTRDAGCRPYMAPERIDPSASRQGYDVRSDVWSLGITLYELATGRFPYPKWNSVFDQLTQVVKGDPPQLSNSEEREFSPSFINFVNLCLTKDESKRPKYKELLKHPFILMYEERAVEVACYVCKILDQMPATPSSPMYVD

[8] = biological target: Tyrosine-protein kinase Lck (Homo sapiens, UniProt P06239)
[9] = biological target: T3, Tyrosine-protein kinase Mer (Homo sapiens, UniProt Q12866)
T3 sequence (Q12866 whole entry): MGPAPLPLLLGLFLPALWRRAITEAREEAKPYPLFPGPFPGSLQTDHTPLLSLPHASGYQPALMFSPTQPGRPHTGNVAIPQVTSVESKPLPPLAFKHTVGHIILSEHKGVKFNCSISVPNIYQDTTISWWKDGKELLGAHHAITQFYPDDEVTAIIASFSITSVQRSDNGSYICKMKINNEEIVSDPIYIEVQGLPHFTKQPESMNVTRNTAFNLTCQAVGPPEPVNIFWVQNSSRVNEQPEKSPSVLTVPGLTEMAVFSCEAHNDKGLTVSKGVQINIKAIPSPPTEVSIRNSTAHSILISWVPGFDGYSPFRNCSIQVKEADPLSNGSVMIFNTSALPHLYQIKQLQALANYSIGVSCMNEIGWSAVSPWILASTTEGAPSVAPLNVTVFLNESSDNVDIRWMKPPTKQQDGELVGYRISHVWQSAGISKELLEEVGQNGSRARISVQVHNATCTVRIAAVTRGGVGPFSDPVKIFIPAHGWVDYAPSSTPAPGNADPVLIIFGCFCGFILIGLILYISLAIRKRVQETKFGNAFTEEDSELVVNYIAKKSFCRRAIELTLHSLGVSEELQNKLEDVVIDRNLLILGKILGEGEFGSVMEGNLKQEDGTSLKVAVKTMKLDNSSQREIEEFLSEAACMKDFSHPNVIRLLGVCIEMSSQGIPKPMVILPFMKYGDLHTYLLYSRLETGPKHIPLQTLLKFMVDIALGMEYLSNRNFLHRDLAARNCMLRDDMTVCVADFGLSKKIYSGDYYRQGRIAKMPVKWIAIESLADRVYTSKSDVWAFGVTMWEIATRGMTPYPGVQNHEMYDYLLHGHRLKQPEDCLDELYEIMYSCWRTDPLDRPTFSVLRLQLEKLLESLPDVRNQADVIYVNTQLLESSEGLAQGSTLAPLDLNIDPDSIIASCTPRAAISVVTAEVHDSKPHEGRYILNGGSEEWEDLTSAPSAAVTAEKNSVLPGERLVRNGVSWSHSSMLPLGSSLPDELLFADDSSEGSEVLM
Also: in the data inactive means no Kd found up to 30 µM.

Chain of Myosin-10 (P35580 whole entry): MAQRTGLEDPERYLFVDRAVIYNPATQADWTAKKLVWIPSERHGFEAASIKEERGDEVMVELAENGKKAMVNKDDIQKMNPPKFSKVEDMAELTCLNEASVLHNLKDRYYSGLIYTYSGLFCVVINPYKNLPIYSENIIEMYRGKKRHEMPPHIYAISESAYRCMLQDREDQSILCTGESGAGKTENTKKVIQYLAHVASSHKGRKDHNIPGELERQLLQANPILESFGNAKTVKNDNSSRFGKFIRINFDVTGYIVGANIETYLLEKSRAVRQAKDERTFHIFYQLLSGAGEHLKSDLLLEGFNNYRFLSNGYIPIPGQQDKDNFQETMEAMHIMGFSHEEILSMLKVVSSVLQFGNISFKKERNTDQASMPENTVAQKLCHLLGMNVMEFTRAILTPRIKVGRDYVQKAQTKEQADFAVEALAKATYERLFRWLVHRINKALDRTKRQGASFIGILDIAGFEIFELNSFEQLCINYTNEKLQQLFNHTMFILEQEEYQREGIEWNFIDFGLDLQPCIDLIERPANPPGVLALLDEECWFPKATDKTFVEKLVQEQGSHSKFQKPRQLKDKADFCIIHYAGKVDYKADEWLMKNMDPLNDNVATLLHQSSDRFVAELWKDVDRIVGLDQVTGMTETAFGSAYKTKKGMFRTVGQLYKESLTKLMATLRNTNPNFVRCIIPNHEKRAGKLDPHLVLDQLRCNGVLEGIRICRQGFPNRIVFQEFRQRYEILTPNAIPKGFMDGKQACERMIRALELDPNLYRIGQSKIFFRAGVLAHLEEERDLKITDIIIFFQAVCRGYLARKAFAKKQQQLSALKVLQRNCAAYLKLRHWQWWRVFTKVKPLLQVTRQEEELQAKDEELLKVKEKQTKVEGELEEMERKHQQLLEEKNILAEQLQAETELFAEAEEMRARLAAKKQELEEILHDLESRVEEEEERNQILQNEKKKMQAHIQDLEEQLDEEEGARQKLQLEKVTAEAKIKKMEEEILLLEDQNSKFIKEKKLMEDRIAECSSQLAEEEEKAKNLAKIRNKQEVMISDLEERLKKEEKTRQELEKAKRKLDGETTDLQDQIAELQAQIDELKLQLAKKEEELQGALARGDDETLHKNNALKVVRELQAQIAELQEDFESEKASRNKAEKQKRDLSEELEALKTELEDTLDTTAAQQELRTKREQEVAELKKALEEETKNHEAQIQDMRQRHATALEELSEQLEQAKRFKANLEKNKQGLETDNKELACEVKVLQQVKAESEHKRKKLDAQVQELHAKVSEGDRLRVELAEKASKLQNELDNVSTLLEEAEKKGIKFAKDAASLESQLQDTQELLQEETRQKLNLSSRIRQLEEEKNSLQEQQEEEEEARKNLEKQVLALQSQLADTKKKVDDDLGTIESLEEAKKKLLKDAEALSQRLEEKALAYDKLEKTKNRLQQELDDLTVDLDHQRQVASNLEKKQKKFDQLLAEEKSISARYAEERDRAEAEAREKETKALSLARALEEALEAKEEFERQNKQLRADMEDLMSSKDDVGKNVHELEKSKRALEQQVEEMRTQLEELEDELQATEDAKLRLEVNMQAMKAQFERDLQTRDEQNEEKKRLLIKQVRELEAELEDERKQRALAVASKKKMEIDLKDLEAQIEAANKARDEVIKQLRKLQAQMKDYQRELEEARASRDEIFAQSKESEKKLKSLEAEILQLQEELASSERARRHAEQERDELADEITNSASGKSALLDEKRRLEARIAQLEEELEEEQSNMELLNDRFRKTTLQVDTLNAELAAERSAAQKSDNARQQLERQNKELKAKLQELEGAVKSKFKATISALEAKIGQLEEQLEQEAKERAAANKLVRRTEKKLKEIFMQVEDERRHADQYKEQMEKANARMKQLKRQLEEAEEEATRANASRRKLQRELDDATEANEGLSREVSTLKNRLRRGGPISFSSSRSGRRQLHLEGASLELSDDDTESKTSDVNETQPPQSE
Chain of MAP kinase-activated protein kinase 3 (Q16644 whole entry): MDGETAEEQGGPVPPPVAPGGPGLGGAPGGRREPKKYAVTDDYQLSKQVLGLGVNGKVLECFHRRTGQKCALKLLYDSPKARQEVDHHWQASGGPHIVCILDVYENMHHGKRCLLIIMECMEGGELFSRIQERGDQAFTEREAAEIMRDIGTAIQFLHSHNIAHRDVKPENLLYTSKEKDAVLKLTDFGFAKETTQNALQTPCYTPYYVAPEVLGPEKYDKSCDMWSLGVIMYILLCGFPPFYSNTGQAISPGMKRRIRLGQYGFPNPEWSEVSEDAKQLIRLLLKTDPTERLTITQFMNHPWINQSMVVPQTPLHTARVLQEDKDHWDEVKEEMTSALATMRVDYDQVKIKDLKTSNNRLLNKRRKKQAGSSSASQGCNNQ
Chain of Serine/threonine-protein kinase Nek7 (Q8TDX7 whole entry): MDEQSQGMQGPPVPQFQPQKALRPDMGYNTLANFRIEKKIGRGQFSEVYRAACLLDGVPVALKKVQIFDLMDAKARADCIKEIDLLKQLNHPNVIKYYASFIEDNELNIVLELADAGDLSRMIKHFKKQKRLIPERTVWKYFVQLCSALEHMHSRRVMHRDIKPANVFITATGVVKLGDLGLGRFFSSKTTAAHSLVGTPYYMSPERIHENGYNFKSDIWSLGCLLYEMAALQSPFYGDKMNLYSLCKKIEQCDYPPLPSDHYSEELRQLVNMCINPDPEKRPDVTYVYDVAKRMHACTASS
Chain of Tyrosine-protein kinase Lck (P06239 whole entry): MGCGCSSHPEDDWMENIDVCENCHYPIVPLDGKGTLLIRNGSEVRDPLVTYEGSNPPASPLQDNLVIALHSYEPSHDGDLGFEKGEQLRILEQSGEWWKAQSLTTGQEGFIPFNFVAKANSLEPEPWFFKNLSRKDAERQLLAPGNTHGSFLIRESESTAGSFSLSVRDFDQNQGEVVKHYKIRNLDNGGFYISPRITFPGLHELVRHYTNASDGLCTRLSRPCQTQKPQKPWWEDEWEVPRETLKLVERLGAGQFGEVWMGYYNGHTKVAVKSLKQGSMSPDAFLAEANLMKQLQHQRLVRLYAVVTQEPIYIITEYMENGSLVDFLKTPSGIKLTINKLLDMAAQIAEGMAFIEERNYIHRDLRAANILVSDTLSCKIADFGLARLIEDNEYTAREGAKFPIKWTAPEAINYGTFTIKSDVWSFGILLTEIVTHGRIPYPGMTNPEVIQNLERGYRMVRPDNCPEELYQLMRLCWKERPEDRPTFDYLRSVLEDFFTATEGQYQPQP
Chain of Misshapen-like kinase 1 (Q8N4C8 whole entry): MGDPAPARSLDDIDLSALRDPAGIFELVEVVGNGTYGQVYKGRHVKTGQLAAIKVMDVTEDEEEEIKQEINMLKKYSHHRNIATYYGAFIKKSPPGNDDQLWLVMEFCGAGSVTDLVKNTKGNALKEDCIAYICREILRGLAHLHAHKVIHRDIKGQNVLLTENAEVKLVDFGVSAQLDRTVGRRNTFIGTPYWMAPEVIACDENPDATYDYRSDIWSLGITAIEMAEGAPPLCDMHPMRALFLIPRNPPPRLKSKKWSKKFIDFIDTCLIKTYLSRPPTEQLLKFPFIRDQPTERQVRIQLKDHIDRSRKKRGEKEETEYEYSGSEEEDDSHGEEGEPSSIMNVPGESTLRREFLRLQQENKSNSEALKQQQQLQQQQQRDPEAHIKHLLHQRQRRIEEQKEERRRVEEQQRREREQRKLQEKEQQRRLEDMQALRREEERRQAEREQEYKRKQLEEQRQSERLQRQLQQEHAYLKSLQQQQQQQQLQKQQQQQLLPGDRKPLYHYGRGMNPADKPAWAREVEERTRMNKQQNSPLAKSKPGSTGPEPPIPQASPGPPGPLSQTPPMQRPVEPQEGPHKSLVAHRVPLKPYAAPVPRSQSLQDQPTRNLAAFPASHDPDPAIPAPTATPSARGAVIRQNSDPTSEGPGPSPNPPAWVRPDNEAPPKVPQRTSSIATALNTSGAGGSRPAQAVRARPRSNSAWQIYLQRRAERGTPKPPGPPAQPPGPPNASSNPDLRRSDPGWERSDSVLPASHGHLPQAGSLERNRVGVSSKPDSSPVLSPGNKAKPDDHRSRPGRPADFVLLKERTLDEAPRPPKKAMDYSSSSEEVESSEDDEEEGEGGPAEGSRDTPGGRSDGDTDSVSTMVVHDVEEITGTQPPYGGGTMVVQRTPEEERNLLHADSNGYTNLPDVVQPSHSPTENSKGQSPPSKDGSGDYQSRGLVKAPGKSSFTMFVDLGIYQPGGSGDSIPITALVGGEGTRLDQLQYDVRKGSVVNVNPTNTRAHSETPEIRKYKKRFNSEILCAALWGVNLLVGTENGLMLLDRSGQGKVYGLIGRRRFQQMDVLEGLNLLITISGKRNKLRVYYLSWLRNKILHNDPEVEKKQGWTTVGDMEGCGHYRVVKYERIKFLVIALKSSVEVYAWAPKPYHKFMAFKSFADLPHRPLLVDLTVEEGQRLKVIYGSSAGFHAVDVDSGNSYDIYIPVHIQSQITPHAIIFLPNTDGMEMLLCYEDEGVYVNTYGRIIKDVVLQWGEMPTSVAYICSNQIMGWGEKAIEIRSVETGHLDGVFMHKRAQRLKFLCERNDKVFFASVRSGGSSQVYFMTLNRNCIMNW
Chain of Cyclin-dependent kinase 10 (Q15131 whole entry): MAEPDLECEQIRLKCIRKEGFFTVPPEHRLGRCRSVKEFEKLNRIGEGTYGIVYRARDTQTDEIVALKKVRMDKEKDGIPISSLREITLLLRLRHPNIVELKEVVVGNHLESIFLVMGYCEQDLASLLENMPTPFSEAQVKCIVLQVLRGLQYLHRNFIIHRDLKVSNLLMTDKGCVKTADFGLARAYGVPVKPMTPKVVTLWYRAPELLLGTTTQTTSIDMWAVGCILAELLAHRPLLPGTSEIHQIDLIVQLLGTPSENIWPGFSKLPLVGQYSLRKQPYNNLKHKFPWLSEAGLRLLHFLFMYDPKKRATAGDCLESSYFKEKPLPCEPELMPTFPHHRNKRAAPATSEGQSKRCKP

- Kd [1]: > 30 µM (inactive)
- Kd [2]: > 30 µM (inactive)
- Kd (Myosin-10): > 30 µM (inactive)
- Kd (Misshapen-like kinase 1): > 30 µM (inactive)
- Kd [3]: > 30 µM (inactive)
SMILES: Cn1c(=O)n(-c2ccc(C(C)(C)C#N)cc2)c2c3cc(-c4cnc5ccccc5c4)ccc3ncc21 [DACTOLISIB]

- Kd [6]: > 30 µM (inactive)
- Kd [2]: > 30 µM (inactive)
- Kd (Myosin-10): > 30 µM (inactive)
- Kd [8]: > 30 µM (inactive)
- Kd [3]: > 30 µM (inactive)
SMILES: COc1cccc2cc(-c3nc([C@H]4CC[C@H](C(=O)O)CC4)n4ncnc(N)c34)[nH]c12 [OSI-027]

- Kd [4]: > 30 µM (inactive)
- Kd [6]: > 30 µM (inactive)
- Kd [2]: 0.003 µM
- Kd (Myosin-10): > 30 µM (inactive)
SMILES: CC1(C)CNc2cc(NC(=O)c3cccnc3NCc3ccncc3)ccc21 [MOTESANIB]

- Kd [5]: > 30 µM (inactive)
- Kd [6]: > 30 µM (inactive)
- Kd [2]: > 30 µM (inactive)
- Kd (Myosin-10): > 30 µM (inactive)
- Kd [8]: 1.05 µM (active)
SMILES: COc1cc2nccc(Oc3ccc(NC(=O)C4(C(=O)Nc5ccc(F)cc5)CC4)cc3)c2cc1OC [CABOZANTINIB]

- Kd [4]: > 30 µM (inactive)
- Kd [5]: > 30 µM (inactive)
- Kd [1]: > 30 µM (inactive)
- Kd [2]: > 30 µM (inactive)
- Kd [9]: > 30 µM (inactive)
- Kd [7]: > 30 µM (inactive)
- Kd (Myosin-10): > 30 µM (inactive)
SMILES: O=S(=O)(c1cccc2c(O)nccc12)N1CCCNCC1 [HYDROXYFASUDIL]

The remaining lines, values behind:

SMILES: CC1(COc2ccc3c(c2)ncn3-c2ccc3cccc(N4CCC(N)CC4)c3n2)COC1 [CRENOLANIB]
- Kd [4]: > 30 µM (inactive)
- Kd [5]: > 30 µM (inactive)
- Kd [6]: > 30 µM (inactive)
- Kd [1]: > 30 µM (inactive)
- Kd [2]: > 30 µM (inactive)
- Kd [7]: > 30 µM (inactive)
- Kd (Myosin-10): > 30 µM (inactive)

SMILES: O=S(=O)(c1cccc2cnccc12)N1CCCNCC1 [FASUDIL]
- Kd [5]: > 30 µM (inactive)
- Kd [6]: > 30 µM (inactive)
- Kd [2]: > 30 µM (inactive)
- Kd (Myosin-10): > 30 µM (inactive)

SMILES: C=CC(=O)Nc1cc(Nc2nccc(-c3cn(C)c4ccccc34)n2)c(OC)cc1N(C)CCN(C)C [OSIMERTINIB]
- Kd [5]: > 30 µM (inactive)
- Kd [6]: > 30 µM (inactive)
- Kd [2]: > 30 µM (inactive)
- Kd (Myosin-10): > 30 µM (inactive)
- Kd [8]: > 30 µM (inactive)
- Kd (Misshapen-like kinase 1): > 30 µM (inactive)
- Kd [3]: > 30 µM (inactive)

SMILES: CN(C)C/C=C/C(=O)Nc1cc2c(Nc3ccc(F)c(Cl)c3)ncnc2cc1O[C@H]1CCOC1 [AFATINIB]
- Kd [6]: > 30 µM (inactive)
- Kd [2]: > 30 µM (inactive)
- Kd (Myosin-10): > 30 µM (inactive)
- Kd [3]: > 30 µM (inactive)

SMILES: O=C(NC[C@H](O)CO)c1ccncc1Nc1ccc(I)cc1F [PIMASERTIB]
- Kd [4]: > 30 µM (inactive)
- Kd [6]: > 30 µM (inactive)
- Kd [2]: > 30 µM (inactive)
- Kd [7]: > 30 µM (inactive)
- Kd (Myosin-10): > 30 µM (inactive)
- Kd [8]: > 30 µM (inactive)
- Kd (Misshapen-like kinase 1): > 30 µM (inactive)

SMILES: NC[C@@](O)(c1ccc(Cl)cc1)c1ccc(-c2cn[nH]c2)cc1 [AT-13148]
- Kd [2]: > 30 µM (inactive)
- Kd (Myosin-10): > 30 µM (inactive)
- Kd [8]: > 30 µM (inactive)
- Kd (Misshapen-like kinase 1): > 30 µM (inactive)

SMILES: Cc1cc(Nc2nc(N[C@@H](C)c3ncc(F)cn3)ncc2Cl)n[nH]1 [AZD-1480]
- Kd [4]: > 30 µM (inactive)
- Kd [5]: > 30 µM (inactive)
- Kd [6]: > 30 µM (inactive)
- Kd [2]: > 30 µM (inactive)
- Kd [7]: > 30 µM (inactive)
- Kd (Myosin-10): > 30 µM (inactive)
- Kd [8]: > 30 µM (inactive)
- Kd [3]: > 30 µM (inactive)

SMILES: CCc1cc2c(cc1N1CCC(N3CCOCC3)CC1)C(C)(C)c1[nH]c3cc(C#N)ccc3c1C2=O [ALECTINIB]
- Kd [4]: > 30 µM (inactive)
- Kd [6]: > 30 µM (inactive)
- Kd [2]: > 30 µM (inactive)
- Kd [9]: > 30 µM (inactive)
- Kd (Myosin-10): > 30 µM (inactive)
- Kd [8]: > 30 µM (inactive)
- Kd (Misshapen-like kinase 1): > 30 µM (inactive)
- Kd [3]: > 30 µM (inactive)
